Experimental data published in US5019384A, “Immunonodulating compositions and their use” (Massachusetts Institute of Technology, priority 1989, dated 1991).
Entries after “also recorded” stand apart in the source; their conditions may differ. Like-named read-outs stand apart in the source and are kept apart here.

Columns and labels:
I-A^k = target: T1, I-A^k (Mus musculus, UniProt P01910+P06343); test: Gel filtration binding of 125I-labeled peptide to purified Ia (I-A^k); details: I-A^k; 125I-labeled peptide, 48 hours at room temperature, no inhibitor
T1 construct: endogenous in cells
T1 sequence (P01910 24-256): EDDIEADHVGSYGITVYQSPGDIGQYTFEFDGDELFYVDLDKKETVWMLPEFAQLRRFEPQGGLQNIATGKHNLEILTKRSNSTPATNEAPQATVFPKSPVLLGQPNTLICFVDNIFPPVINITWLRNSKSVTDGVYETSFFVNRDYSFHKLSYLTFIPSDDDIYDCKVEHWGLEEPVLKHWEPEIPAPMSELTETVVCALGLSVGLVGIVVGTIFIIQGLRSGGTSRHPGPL
T1 sequence (P06343 28-263): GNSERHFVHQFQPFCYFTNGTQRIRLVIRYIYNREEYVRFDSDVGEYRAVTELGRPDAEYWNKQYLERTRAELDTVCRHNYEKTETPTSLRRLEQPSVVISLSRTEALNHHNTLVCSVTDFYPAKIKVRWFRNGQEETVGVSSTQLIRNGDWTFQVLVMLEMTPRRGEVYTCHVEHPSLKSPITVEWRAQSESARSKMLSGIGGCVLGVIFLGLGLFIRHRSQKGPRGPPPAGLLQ
Description: (§1) The peptide P12-26 was modified by the addition of a tyrosine residue to the N-terminus to serve as an acceptor for the ^125 I.
(§2) Ia-molecules were purifed from Nonidet P-40 (NP-40) lysates of A20 (H2^d) or AKTB-1b (H2^k) cells by affinity chromatography using the following monoclonal antibodies: MK-D6 (I-A^d -specific), 10-3-6 (I-A^k -specific) specific) or 14-4-4 (I-E^d/k -specific) coupled to Sepharose 4B beads (Pharmacia Fine Chemicals, Sweden).
(§3) A gel filtration assay was used for determining the degree of association between immunogenic peptides and Ia. The assay is described in: Buus, S. et al., Proceeding of the National Academy of Sciences, U.S.A. (1986) 83:3968, the teaching of which is incorporated herein by reference. Briefly, 40 μmole of purified Ia in 1 percent NP-40/PBS was mixed with 0.2 μmole of ^125 I-labeled peptide (approximately 200,000 cpm for each experiment) and incubated for 48 hours at room temperature to allow for formation of the Ia-peptide complex. The Ia-peptide complexes were separated from free peptide by gel filtration and the percentage of peptide bound to Ia was calculated as the ratio of the ^125 I-labeled peptide in the void volume to the total ^125 I-labeled peptide recovered.

T-cell hybridoma 8I = test: Activation of T-cell hybridoma 8I measured by IL-2 secretion; assay type: cell-based, A/J strain; details: for Stimulation of 8I: in the context of I-E^k
Experimental: (§4) T-cell hybridomas were obtained as described in Guillet et al., Science (1985) 235:865-870: and Lechler et al., J. Exp. Med. (1986) 163:678-696 (particularly references cited therein). The procedure for determining inhibition or activation is described in Guillet et al., supra.
(§5) The activation of T-cell hybridomas was measured by their ability to secrete IL-2 (T-cell hybridomas (5×10^4) that were incubated with 5×10^4 antigen-presenting cells in wells of a 96-well tissue Costar plate (no. 3596) in 200 μl RPMI complete medium containing the appropriate antigen concentrations). After 24 hrs of culture, supernatant (50 μl) was removed and then assayed for IL-2 content by its ability to maintain the growth of the IL-2 Dependent CTL-L cells: 1 μCi of ^3 H tritiated thymidine was added per well. Six hours later the cells were harvested by an automatic cell harvester (Skartron Inc., Sterling, Va.) and thymidine incorporation measured by scintillation counting.
8I (I-E^k -restricted) T-cell hybridomas and TA3 B presenting cells (5×10^4) were cocultured with various concentration of P15-26 and either medium alone or 60 μM of Ova (P324-336) or 60 μM Nase (P61-80) as described above. […] In addition, no other peptides representative of the remainder of the Nase sequence were able to inhibit 7B7.3 activation.

T-cell hybridoma 7B7.3 = test: Activation of T-cell hybridoma 7B7.3 measured by IL-2 secretion; assay type: cell-based, Balb/c mouse; details: for Inhibition of P15-26-dependent 7B7.3 activation: P15-26 as activator, I-A^d context, IL-2 release; for Stimulation of 7B7.3: in the context of I-A^d
Experimental: as §4, §5
The activity of T-cell hybridoma 7B7.3 was measured in the presence of various concentrations of P15-26, either in RPMI 1640 with 10 percent fetal calf serum alone or in the presence of P12-24 20 μM or P12-24 60 μM. A20 B-cell lymphomas (5×10^4 cells/well) were used as antigen presenting cells. After 24 hrs of culture, supernatant (50 μl) was harvested and then assayed for IL-2 concentration by following incorporation of ^3 H thymidine into the IL-2 dependent CTL-L cell line (10^4 cells/well). The indicated values in FIG. 2 represent the arithmetic mean of triplicate samples.
The following work was carried out to examine the competitive ability of peptides derived from Staphylococcus nuclease (Nase), residues 61-80 (P61-80) and from ovalbumin (Ova), residues 324-336 (P324-336) to inhibit P15-26-dependent activation of the hybridoma 7B7.3. Each of these peptides has been shown in their respective cases to be I-A^d -restricted and to be immunodominant for their respective antigens. Finnegan, A. et al. Journal of Experimental Medicine (1986) 164:897-910: Shimonkevitz, R. et al., Journal of Immunology (1984). 5×10^4 TA3 cells were added to each well. Various concentrations of P15-26 were added with either medium (RPMI 1640 with 10 percent fetal calf serum) alone or 30 μM or Ova (P324-36) of 60 μM of Nase ([…]). A20 B-cell lymphoma (5×10^4 cells/well) was used as antigen presenting cells. 7B7.3 T-cell hybridomas (5×10^4) were then added and cultured for 24 hrs. The level of T-cell stimulation was assayed by determining the IL-2 concentration as indicated in Example II. […] The degree of inhibition is […] upon the ratio of activator to inhibitor in each case.

[1] = system: T-cell hybridoma DO-11.10; assay type: cell-based
I-A^d = target: T2, I-A^d (Mus musculus, UniProt P01921+P04228); test: Gel filtration binding of 125I-labeled peptide to purified Ia (I-A^d); details: I-A^d; 125I-labeled peptide, 48 hours at room temperature, no inhibitor
T2 construct: endogenous in cells
T2 sequence (P04228 24-256): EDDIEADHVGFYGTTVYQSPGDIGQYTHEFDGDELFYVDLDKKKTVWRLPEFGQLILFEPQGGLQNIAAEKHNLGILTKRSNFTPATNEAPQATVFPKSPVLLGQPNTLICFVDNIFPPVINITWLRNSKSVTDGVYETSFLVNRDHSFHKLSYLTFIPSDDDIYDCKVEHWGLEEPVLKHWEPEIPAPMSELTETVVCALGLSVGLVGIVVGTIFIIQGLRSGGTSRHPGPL
T2 sequence (P01921 28-265): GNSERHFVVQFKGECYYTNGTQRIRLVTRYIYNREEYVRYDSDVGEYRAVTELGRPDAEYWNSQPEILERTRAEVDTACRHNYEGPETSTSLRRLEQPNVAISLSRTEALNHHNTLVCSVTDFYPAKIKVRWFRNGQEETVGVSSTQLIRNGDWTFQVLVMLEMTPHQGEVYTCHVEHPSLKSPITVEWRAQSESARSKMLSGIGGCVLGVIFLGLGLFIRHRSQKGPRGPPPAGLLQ
Description: as §1, §2, §3

Row | Substance | Stimulation of 8I (T-cell hybridoma 8I) | Inhibition of P15-26-dependent 7B7.3 activation (T-cell hybridoma 7B7.3) | Stimulation of 7B7.3 (T-cell hybridoma 7B7.3) | Stimulation of DO-11.10 [1] | also measured
1 | Lysozyme (Hen) (P46-61): lysozyme-derived peptide restricted by I-A^k [reference compound] |  |  |  |  | Percent of Peptide Bound (I-A^k): 21.5%
2 | P12-24: homologous peptide which contains residues 12-24 of cI | Neither 7B7.3 nor 8I can be stimulated; also recorded: Neither T-cell can be stimulated | inhibited activation by P15-26 in a dose-dependent manner; also recorded: inhibition of P15-26-dependent7B7.3 activation was observed; also recorded: inhibit activation by P15-26 in a dose dependent manner | Neither 7B7.3 nor 8I can be stimulated; also recorded: Neither T-cell can be stimulated |  | Effect on 8I activation (IL-2 response) (T-cell hybridoma 8I; I-E^k-restricted hybridoma, P12-24 as competitor): no statistically significant effect; also recorded: had no effect
3 | P15-26: peptide which contains amino acid residues 15-26 of cI | recognizes the same peptide |  | is stimulated; also recorded: can be stimulated |  | EC50 (T-cell hybridoma 7B7.3; 7B7.3 co-cultured with P15-26 and P12-24 at 20 μM, read-out: 50 percent stimulation point of the P15-26 antigen dose response curve): 29.8 ± 2.8 µM; EC50 (T-cell hybridoma 7B7.3; 7B7.3 co-cultured with P15-26 and P12-24 at 60 μM, read-out: 50 percent stimulation point of the P15-26 antigen dose response curve): 70.3 µM; EC50 (T-cell hybridoma 7B7.3; P15-26 cultured with 7B7.3 alone, A20 antigen presenting cells, 24 hrs, IL-2, read-out: 50% stimulation point of the P15-26 antigen dose response curve): 20.7 ± 1.2 µM
4 | Ova (P324-336): peptide from ovalbumin (Ova), residues 324-336, truncated analog of P323-339 (ISQAVHAAHAEIN; UniProt P01012 324-336, looked up, fragment) [reference compound] |  | inhibit 7B7.3 activation in a dose-dependent manner |  | responds less well | Effect on 8I activation (T-cell hybridoma 8I; TA3 presenting cells, P15-26 stimulator, competitor peptide 60 μM): without effect
5 | P323-339: peptide P323-339 derived from ovalbumin (KISQAVHAAHAEINEAG; UniProt P01012 323-339, looked up, fragment) [reference compound] |  |  |  | responds to | Percent of Peptide Bound (I-A^d): 10.6%
